Assays:
[1] = test system: bedstraw; test: Test B pre/postemergence bedstraw; type: in vivo, Galium aparine; conditions: Preemergence
How it was run: (§1)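 Test chemicals in a non-phytotoxic solvent mixture with surfactant were sprayed preemergence onto planted seeds and postemergence onto plants 2 to 18 cm tall (1- to 4-leaf stage). After twelve to sixteen days in a greenhouse, injury was visually rated against untreated controls from 0 (no effect) to 10 (complete control).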

[2] = test system: blackgrass; test: Test B pre/postemergence blackgrass; type: in vivo, Alopecurus myosuroides; conditions: for Blackgrass plant response rating: scale of 0 to 10 where 0 is no effect and 10 is complete control
How it was run: as §1

[3] = test system: surinam grass; test: Test B pre/postemergence surinam grass; type: in vivo, Brachiaria decumbens; conditions: for B. signalgrass plant response rating: scale of 0 to 10 where 0 is no effect and 10 is complete control
How it was run: as §1

[4] = test system: cocklebur; test: Test B pre/postemergence cocklebur; type: in vivo, Xanthium strumarium; conditions: for Cocklebur plant response rating: scale of 0 to 10 where 0 is no effect and 10 is complete control
How it was run: as §1

[5] = test system: corn; test: Test B pre/postemergence corn; type: in vivo, Zea mays; conditions: for Corn plant response rating: scale of 0 to 10 where 0 is no effect and 10 is complete control
How it was run: as §1

[6] = test system: giant foxtail; test: Test B pre/postemergence giant foxtail; type: in vivo, Setaria faberii; conditions: for Giant foxtail plant response rating: scale of 0 to 10 where 0 is no effect and 10 is complete control
How it was run: as §1

[7] = test system: morningglory; test: Test B pre/postemergence morningglory; type: in vivo, Ipomoea hederacea; conditions: for Morningglory plant response rating: scale of 0 to 10 where 0 is no effect and 10 is complete control
How it was run: as §1

[8] = test system: pigweed; test: Test B pre/postemergence pigweed; type: in vivo, Amaranthus retroflexus; conditions: for Redroot pigweed plant response rating: scale of 0 to 10 where 0 is no effect and 10 is complete control
How it was run: as §1

[9] = test system: rape; test: Test B pre/postemergence rape; type: in vivo, Brassica napus; conditions: for Rape plant response rating: scale of 0 to 10 where 0 is no effect and 10 is complete control
How it was run: as §1

[10] = test system: soybean; test: Test B pre/postemergence soybean; type: in vivo, Glycine max; conditions: for Soybean plant response rating: scale of 0 to 10 where 0 is no effect and 10 is complete control
How it was run: as §1

[11] = test system: sugar beet; test: Test B pre/postemergence sugar beet; type: in vivo, Beta vulgaris; conditions: for Sugarbeets plant response rating: scale of 0 to 10 where 0 is no effect and 10 is complete control
How it was run: as §1

[12] = test system: velvetleaf; test: Test B pre/postemergence velvetleaf; type: in vivo, Abutilon theophrasti; conditions: for Velvetleaf plant response rating: scale of 0 to 10 where 0 is no effect and 10 is complete control
How it was run: as §1

[13] = test system: purple nutsedge; test: Test B pre/postemergence purple nutsedge; type: in vivo, Cyperus rotundus; conditions: for Nutsedge plant response rating: scale of 0 to 10 where 0 is no effect and 10 is complete control
How it was run: as §1

[14] = test system: smallflower flatsedge; test: Test B flood test smallflower flatsedge; type: in vivo, Cyperus difformis
How it was run: (§2)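 Plants were grown to the 2-leaf stage before treatment with test chemical, then held in a greenhouse for twelve to sixteen days. Injury was visually rated against untreated controls on a 0–10 scale, where 0 is no effect and 10 is complete control.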

[15] = test system: duck salad; test: Test B flood test duck salad; type: in vivo, Heteranthera limosa
How it was run: as §2

[16] = test system: bamyardgrass; test: Test B flood test barnyardgrass; type: in vivo, Echinochloa crus-galli
How it was run: as §2

[17] = Postemergence, Rate 125 g/ha, scale 0 to 10, 0 is no effect, 10 is complete control
[18] = Postemergence, Rate 250 g/ha, scale 0 to 10, 0 is no effect, 10 is complete control
[19] = Preemergence, Rate 62 g/ha, scale 0 to 10 (0 no effect, 10 complete control)
[20] = Rate 500 g/ha, Postemergence, scale 0 to 10, 0 no effect, 10 complete control
[21] = Rate 62 g/ha, flood test species, Pre-emergence, visual evaluation after twelve to sixteen days
[22] = Rate 125 g/ha, under heading Pre-emergence, flood test species, visual evaluation after twelve to sixteen days
[23] = Rate 250 g/ha, Pre-emergence, flood-test species, scale 0 to 10, 0 is no effect, 10 is complete control
[24] = Rate 500 g/ha, Pre-emergence, flood test species, scale 0 to 10 (0 no effect, 10 complete control)

Cc1nsc(Cl)c1Cn1c(=O)on(C(=O)N(c2ccccc2)C(C)C)c1=O [Compound 374]
8: Plant response rating, Giant foxtail [6, 19] | Plant response rating, Giant foxtail [6, 20]
2: Blackgrass plant response rating (0 to 10 scale) ([2]; Preemergence, Rate 125 g/ha) | B. signalgrass plant response rating ([3]; Preemergence, Rate 250 g/ha) | Plant response rating, Giant foxtail [6, 18] | Plant response rating, Redroot pigweed [8, 18] | Plant response rating, Rape [9, 17] | Plant response rating, Rape [9, 18] | Rape plant response rating ([9]; Preemergence, Rate 250 g/ha) | Plant response rating, Soybean [10, 17] | Plant response rating, Soybean [10, 18] | Soybean plant response rating ([10]; Rate 62 g/ha, Postemergence)
1: Plant response rating, Velvetleaf [12, 20]
4: Plant response rating, Soybean [10, 20] | Sugarbeets plant response rating ([11]; Preemergence, Rate 500 g/ha) | Plant response rating, Sugarbeets [11, 20]
0: Plant response rating, Bedstraw ([1]; Rate 62 g/ha, scale 0 to 10 (0 no effect, 10 complete control)) | Bedstraw plant response rating (0 to 10 scale) ([1]; Rate 125 g/ha) | Bedstraw plant response rating ([1]; Rate 250 g/ha, scale of 0 to 10 where 0 is no effect and 10 is complete control) | Plant response rating, Blackgrass [2, 17] | Plant response rating, Blackgrass [2, 18] | Plant response rating, Blackgrass [2, 19] | Blackgrass plant response rating ([2]; Rate 62 g/ha, Postemergence) | Plant response rating, B. signalgrass [3, 17] | Plant response rating, B. signalgrass [3, 18] | Plant response rating, B. signalgrass [3, 19] | B. signalgrass plant response rating (0 to 10 scale, 0 is no effect, 10 is complete control) ([3]; Preemergence, Rate 125 g/ha) | B. signalgrass plant response rating ([3]; Rate 62 g/ha, Postemergence) | Plant response rating, B. signalgrass [3, 20] | Plant response rating, Cocklebur [4, 17] | Plant response rating, Cocklebur [4, 18] | Plant response rating, Cocklebur [4, 19] | Cocklebur plant response rating (0 to 10 scale) ([4]; Preemergence, Rate 125 g/ha) | Cocklebur plant response rating ([4]; Preemergence, Rate 250 g/ha) | Cocklebur plant response rating ([4]; Preemergence, Rate 500 g/ha) | Cocklebur plant response rating ([4]; Rate 62 g/ha, Postemergence) | Plant response rating, Cocklebur [4, 20] | Plant response rating, Corn [5, 17] | Plant response rating, Corn [5, 18] | Plant response rating, Corn [5, 19] | Corn plant response rating (0 to 10 scale) ([5]; Preemergence, Rate 125 g/ha) | Corn plant response rating ([5]; Preemergence, Rate 250 g/ha) | Corn plant response rating ([5]; Preemergence, Rate 500 g/ha) | Corn plant response rating ([5]; Rate 62 g/ha, Postemergence) | Plant response rating, Corn [5, 20] | Plant response rating, Giant foxtail [6, 17] | Giant foxtail plant response rating ([6]; Rate 62 g/ha, Postemergence) | Plant response rating, Morningglory [7, 19] | Morningglory plant response rating (0 to 10 scale) ([7]; Preemergence, Rate 125 g/ha) | Morningglory plant response rating ([7]; Preemergence, Rate 250 g/ha) | Morningglory plant response rating ([7]; Preemergence, Rate 500 g/ha) | Plant response rating, Redroot pigweed [8, 17] | Plant response rating, Redroot pigweed [8, 19] | Redroot pigweed plant response rating (0 to 10 scale) ([8]; Preemergence, Rate 125 g/ha) | Redroot pigweed plant response rating ([8]; Preemergence, Rate 250 g/ha) | Redroot pigweed plant response rating ([8]; Rate 62 g/ha, Postemergence) | Plant response rating, Rape [9, 19] | Rape plant response rating (0 to 10 scale) ([9]; Preemergence, Rate 125 g/ha) | Rape plant response rating ([9]; Rate 62 g/ha, Postemergence) | Plant response rating, Soybean [10, 19] | Soybean plant response rating (0 to 10 scale) ([10]; Preemergence, Rate 125 g/ha) | Soybean plant response rating ([10]; Preemergence, Rate 250 g/ha) | Soybean plant response rating ([10]; Preemergence, Rate 500 g/ha) | Plant response rating, Sugarbeets [11, 17] | Plant response rating, Sugarbeets [11, 18] | Plant response rating, Sugarbeets [11, 19] | Sugarbeets plant response rating (0 to 10 scale) ([11]; Preemergence, Rate 125 g/ha) | Sugarbeets plant response rating ([11]; Preemergence, Rate 250 g/ha) | Sugarbeets plant response rating ([11]; Rate 62 g/ha, Postemergence) | Plant response rating, Velvetleaf [12, 17] | Plant response rating, Velvetleaf [12, 18] | Plant response rating, Velvetleaf [12, 19] | Velvetleaf plant response rating (0 to 10 scale) ([12]; Preemergence, Rate 125 g/ha) | Velvetleaf plant response rating ([12]; Preemergence, Rate 250 g/ha) | Velvetleaf plant response rating ([12]; Preemergence, Rate 500 g/ha) | Velvetleaf plant response rating ([12]; Rate 62 g/ha, Postemergence) | Plant response rating, Nutsedge [13, 17] | Plant response rating, Nutsedge [13, 18] | Plant response rating, Nutsedge [13, 19] | Nutsedge plant response rating (0 to 10 scale) ([13]; Preemergence, Rate 125 g/ha) | Nutsedge plant response rating ([13]; Preemergence, Rate 250 g/ha) | Nutsedge plant response rating ([13]; Preemergence, Rate 500 g/ha) | Nutsedge plant response rating ([13]; Rate 62 g/ha, Postemergence) | Plant response rating, Nutsedge [13, 20] | Plant response rating, S. Flatsedge (0 to 10 scale, 0 is no effect, 10 is complete control) [14, 21] | S. Flatsedge plant response rating (0 to 10 scale, 0 is no effect, 10 is complete control) [14, 22] | S. Flatsedge plant response rating [14, 23] | S. Flatsedge plant response rating [14, 24] | Plant response rating, Ducksalad (0 to 10 scale, 0 is no effect, 10 is complete control) [15, 21] | Ducksalad plant response rating (0 to 10 scale, 0 is no effect, 10 is complete control) [15, 22] | Ducksalad plant response rating [15, 23] | Ducksalad plant response rating [15, 24] | Plant response rating, Barnyardgrass (0 to 10 scale, 0 is no effect, 10 is complete control) [16, 21] | Barnyardgrass plant response rating (0 to 10 scale, 0 is no effect, 10 is complete control) [16, 22] | Barnyardgrass plant response rating [16, 23] | Barnyardgrass plant response rating [16, 24]
10: Giant foxtail plant response rating ([6]; Preemergence, Rate 250 g/ha) | Giant foxtail plant response rating ([6]; Preemergence, Rate 500 g/ha) | Plant response rating, Morningglory [7, 18] | Plant response rating, Morningglory [7, 20]
7: Rape plant response rating ([9]; Preemergence, Rate 500 g/ha) | Plant response rating, Rape [9, 20]
6: Blackgrass plant response rating ([2]; Preemergence, Rate 500 g/ha) | Plant response rating, Redroot pigweed [8, 20]
5: Blackgrass plant response rating ([2]; Preemergence, Rate 250 g/ha) | B. signalgrass plant response rating ([3]; Preemergence, Rate 500 g/ha) | Plant response rating, Morningglory [7, 17]
9: Giant foxtail plant response rating (0 to 10 scale) ([6]; Preemergence, Rate 125 g/ha)

From US6737383B1, “Herbicidal oxadiazolidines” (priority 1999, dated 2004)
